PubChem BioAssay AID1625 (Sanford-Burnham Center for Chemical Genomics, 2009)
Calls of active or inactive are those of the source.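 How the source made its calls: active means z-score above 3 at 5 µM with at least 500 cells counted in the well; inconclusive means wells under 500 cells, flagged as cytotoxic or low count; inactive means the rest.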

Test system: MIN6 insulin promoter-GFP reporter, high-content imaging
Experiment: up-regulation of insulin promoter-GFP reporter – imaging, high-content screening, mouse beta cells (AID 1625)

SMILES	EC50
O=c1c(Cl)c2oc3ccccc3nc-2c2ccccc12	> 16 µM (inactive)
N#CC1CC(c2ccc([N+](=O)[O-])cc2)=NN1c1ccc([N+](=O)[O-])cc1 (stereo unspecified)	> 16 µM (inactive)
CN(C)c1ccc(/C=C2\N=C(c3ccc(Cl)c([N+](=O)[O-])c3)NC2=O)cc1	> 16 µM (inactive)
CCOCCCNc1nc2c(C)cccn2c(=O)c1/C=C1\SC(=S)N(C(C)CC)C1=O (stereo unspecified)	4.03 µM
COc1cc(N2CCCC2)c(OC)cc1/C=C1/NC(=S)NC1=O	4.73 µM
COc1ccc2c(n1)Sc1nc3ccccc3nc1N2	> 16 µM (inactive)
CCN(CC)C(=O)c1sc2nc(-c3cccs3)cc(-c3cccs3)c2c1N	> 16 µM (inactive)
Cc1cc2c(C(F)(F)F)cc(=O)oc2c2c1NCCC2	> 16 µM (inactive)
CN1CC=C2C(C#N)=C(N)C(C#N)(C#N)C(Cc3ccccc3)C2C1 (stereo unspecified)	11.7 µM (inactive)
COc1ccc(CN2C(=O)/C(=C/c3ccc(-c4ccc(Cl)c(C(=O)O)c4)o3)SC2=S)cc1	15.4 µM (inactive)
Cc1ccc(N2C(=O)c3cccc4c(N5CCN(C)CC5)ccc(c34)C2=O)c2cccnc12	10.3 µM (inactive)
Cn1c(=O)c(NC2CCCCC2)c2c3c(cccc31)C(=O)c1ccccc1-2	2.67 µM
N=c1oc2c3c4c(cc2cc1C(=O)Nc1ccccc1)CCCN4CCC3	0.699 µM
CCCCOc1ccc(-c2cc(C(F)(F)F)c(C#N)c(SCC(=O)O)n2)cc1	> 16 µM (inactive)
COc1ccc(-c2ccc3c(N)c(C(=O)c4cccc(OC)c4)sc3n2)cc1	> 16 µM (inactive)
COc1ccccc1N/C=C/c1onc(C)c1[N+](=O)[O-]	2.22 µM
N#C/C(=C/c1ccc(-c2ccccc2)o1)c1nc(-c2cccs2)cs1	0.98 µM
CC(C)N1CCc2c(sc(NC(=O)c3ccc(S(=O)(=O)N4CCc5ccccc54)cc3)c2C(N)=O)C1	> 16 µM (inactive)
Cc1cc(N/N=C/c2ccc([N+](=O)[O-])o2)nc2ccccc12	> 16 µM (inactive)
Oc1ccc(/C=N/Nc2ccnc3cc(Cl)ccc23)c(O)c1	> 16 µM (inactive)
Nc1c(C(=O)c2ccc(Cl)cc2)sc2nsc(SCCN3CCOCC3)c12	5.95 µM
O=C(/C=C/c1cn(CC(O)CN2CCCCCC2)c2ccccc12)c1cccs1 (stereo unspecified)	> 16 µM (inactive)
Cc1ccnc(N/C=C(\C#N)c2nc(-c3cccc(Br)c3)cs2)c1	> 16 µM (inactive)
CN(C)c1ccc(/C=C2\C(=N)N3C(=NC2=O)Sc2cc(S(C)(=O)=O)ccc23)cc1	> 16 µM (inactive)

SMILES	EC50
CCOC(=O)C1=C(C)NC(=O)NC1c1ccc(N2CCC(c3ccccc3)=N2)cc1 (stereo unspecified)	> 16 µM (inactive)
CCN(CC)c1ccc(/C=C/C(=O)c2ccc(Br)cc2)cc1	7.06 µM
O=C1S/C(=C/c2ccc(N3CCOCC3)o2)C(=O)N1Cc1c(F)cccc1Cl	1.76 µM
Cn1c(/C(C#N)=C/c2ccc(-c3ccc(S(N)(=O)=O)cc3)o2)nc2ccccc21	> 16 µM (inactive)
COc1ccc(C2C(C(C)=O)=C(C)N=c3s/c(=C\c4cc(C)n(C)c4C)c(=O)n32)c(OC)c1 (stereo unspecified)	8.89 µM
Cc1ccc(CNc2ccc3c(c2)OCO3)c(C)c1	> 16 µM (inactive)
COc1cccc(/C=N/NC(=O)c2oc3nc(-c4ccccc4)cc(-c4ccco4)c3c2N)c1	> 16 µM (inactive)
CCCCN1C(=O)/C(=C/C=C2/CC(C)(C)CN2C)SC1=S	6.8 µM
CN1/C(=C\C=C2/SC(=S)NC2=O)C(C)(C)c2ccccc21	9.29 µM
CC(=O)n1c(C=Nc2ccccc2)c(O)c2ccccc21	10.1 µM (inactive)
CCCSc1nc2sc3c(c2c(=O)[nH]1)CCN(Cc1ccccc1)C3	> 16 µM (inactive)
N#C/C(=C/c1ccc(N2CCCCC2)o1)c1cccc(F)c1	8.75 µM
N#C/C(=C/c1ccc(N2CCOCC2)o1)C(=O)Nc1ccccc1	9.79 µM
COC(=O)c1cc(NC(=O)c2ccccc2)c(=O)oc1/C=C/Nc1ccc(Oc2ccccc2)cc1	6.49 µM
N#C/C(=C/c1ccc(N2CCOCC2)o1)c1ccc(Br)cc1	12.8 µM (inactive)
N#Cc1ccc(-c2ccccc2)nc1SCC(=O)c1cccc(Cl)c1	> 16 µM (inactive)
CC(C)(C)NC(=S)N/N=C\c1ccc(-c2ccc([N+](=O)[O-])cc2)o1	14.3 µM (inactive)
Cc1[nH]c2ccccc2c1/C=N/Nc1ccc([N+](=O)[O-])cc1	9.3 µM
CCCCN(C)C1=CC2=CC(=C(C#N)C#N)CCC2CC1 (stereo unspecified)	< 0.25 µM
CCCOc1cc(N(CC)CC)ccc1/C=C(/C#N)c1nc2ccc(C)cc2[nH]1	9.89 µM
CCCN1C(=O)S/C(=C/c2ccc(N3CCOCC3)o2)C1=O	8.06 µM
Cc1ccc(-c2cn3nc(-c4ccccc4)c(-c4ccccc4)nc3n2)cc1	12.4 µM (inactive)
O=C1S/C(=C\c2ccc(N3CCOCC3)o2)C(=O)N1Cc1c(F)cccc1Cl	0.976 µM
CC(=O)Nc1ccc(N=Cc2c(O)c(C(=O)Nc3ccccc3)cc3ccccc23)cc1	> 16 µM (inactive)

SMILES	EC50
C=CCN1C=CC(=CC=C(C#N)C#N)C=C1	10.4 µM (inactive)
CCN(CC)c1ccc(/C=N/c2sc3c(c2C#N)C2CCN3CC2)c(O)c1	2.83 µM
CNC(=O)c1c(NC(=O)c2ccc(S(=O)(=O)N3CCCc4ccccc43)cc2)sc2c1CCN(C)C2	> 16 µM (inactive)
Cc1cc2nc3c(=O)n(C4CCCCC4)c(=O)[nH]c3nc2cc1N	8.73 µM
CCN1/C(=C/c2ccc3cc(C)ccc3[n+]2CC)Sc2ccccc21	1.1 µM
N#C/C(=C/c1ccc(N2CCOCC2)o1)c1nc2ccccc2[nH]1	7.76 µM
O=[N+]([O-])c1ccc(C2=NN(c3ccccc3)C(c3ccco3)C2)cc1 (stereo unspecified)	9.19 µM
O=[N+]([O-])c1ccc(-c2ccc(/C=N/Nc3nc(NCc4ccccc4)nc(N4CCOCC4)n3)o2)cc1	> 16 µM (inactive)
CC(C)N1CCc2c(sc(NC(=O)c3cc4cc([N+](=O)[O-])ccc4s3)c2C(N)=O)C1	> 16 µM (inactive)
N#C/C(=C/c1ccc(N2CCOCC2)o1)c1ccc(Cl)cc1	9.12 µM
Cc1n[nH]c(C)c1N1C(=O)c2cccc3c(N4CCCCCC4)ccc(c23)C1=O	9.13 µM
COc1cc(N2CCCC2)c(OC)cc1/C=C(/C#N)c1cccc(F)c1	> 16 µM (inactive)
O=[N+]([O-])c1ccc(/C=C/C2=NN(c3ccccc3)C(c3ccco3)C2)o1 (stereo unspecified)	> 16 µM (inactive)
N#C/C(=C/c1ccc(N2CCCCC2)o1)C(=O)NCCc1c[nH]c2ccccc12	5.17 µM
O=C1S/C(=C\c2ccc(N3CCOCC3)o2)C(=O)N1Cc1ccc(F)cc1	> 16 µM (inactive)
CCN1CCN(C2=CC3=CC(=C(C#N)C#N)CCC3CC2)CC1 (stereo unspecified)	2.79 µM
Cc1ccc2nc(/C(C#N)=C\c3ccc(N4CCOCC4)o3)[nH]c2c1	3.44 µM
CC(=O)c1c(C)[nH]c(-c2ccccc2)nc1=S	9.08 µM
O=C(C1=C(O)C(=O)N(c2nccs2)C1c1ccccc1)c1cc2ccccc2o1 (stereo unspecified)	13.3 µM (inactive)
Cc1cccn2c(=O)c(/C=C3\SC(=S)NC3=O)c(NCCCN3CCOCC3)nc12	12.2 µM (inactive)
Cc1ccc(/C(C#N)=C\c2ccc(N3CCOCC3)o2)cc1	> 16 µM (inactive)
CCCN1CC=C2C(C#N)=C(N)C(C#N)(C#N)C(c3cccc(OC)c3OC)C2C1 (stereo unspecified)	7.34 µM
O=C(OCCN1C(=O)c2cccc3c(N4CCOCC4)ccc(c23)C1=O)c1ccc(Cl)cc1Cl	12.1 µM (inactive)
